# Experimental data: the supplement of paper PMC10307832
# Experiments:
# Test in all cases: relative viability (nuclei count vs DMSO), 5 days (fraction); higher = more cells survive
# [1] = compound: CC1CC(=O)N(C2=CN=C(N=C2N1C3CCCC3)NC4=C(C=C(C=C4)C(=O)NC5CCN(CC5)C)OC)C [NPK76-II-72-1] + CC(=O)c1c(C)c2cnc(Nc3ccc(N4CCNCC4)cn3)nc2n(C2CCCC2)c1=O [Palbociclib] (partner 0.5 µM)
# Procedure, shortened: (§1)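 Lung cancer cell lines were seeded in 1536-well plates and dosed by pin tool the next day, with either a single drug or a fixed anchor-drug dose combined with five library-drug doses (not always all listed) spaced in √10 steps. Five days later, one step fixed the cells and stained their nuclei (final 0.05% Triton X-100, 1% formaldehyde, 1 ug/ml Hoechst), and nuclei were counted on 4× images. Relative viability is the nuclei count in treated wells divided by the count in vehicle wells, and each value is the median of duplicate plates.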
# BI-2536 + Palbociclib = compound: CC[C@@H]1C(=O)N(C)c2cnc(Nc3ccc(C(=O)NC4CCN(C)CC4)cc3OC)nc2N1C1CCCC1 [BI-2536] + CC(=O)c1c(C)c2cnc(Nc3ccc(N4CCNCC4)cn3)nc2n(C2CCCC2)c1=O [Palbociclib] (partner 0.5 µM)
# Procedure, shortened: as §1
# BI-2536 + Pictilisib = compound: CC[C@@H]1C(=O)N(C)c2cnc(Nc3ccc(C(=O)NC4CCN(C)CC4)cc3OC)nc2N1C1CCCC1 [BI-2536] + CS(=O)(=O)N1CCN(Cc2cc3nc(-c4cccc5[nH]ncc45)nc(N4CCOCC4)c3s2)CC1 [Pictilisib] (partner 1 µM)
# Procedure, shortened: as §1
# BI-2536 + Olaparib = compound: CC[C@@H]1C(=O)N(C)c2cnc(Nc3ccc(C(=O)NC4CCN(C)CC4)cc3OC)nc2N1C1CCCC1 [BI-2536] + O=C(c1cc(Cc2n[nH]c(=O)c3ccccc23)ccc1F)N1CCN(C(=O)C2CC2)CC1 [Olaparib] (partner 8 µM)
# Procedure, shortened: as §1
Cell Line,relative viability ([1]; first compound 0.01 µM),relative viability ([1]; first compound 0.03162 µM),relative viability ([1]; first compound 0.1 µM),relative viability ([1]; first compound 0.3162 µM),relative viability ([1]; first compound 1 µM),relative viability (BI-2536 + Palbociclib; first compound 0.01 µM),relative viability (BI-2536 + Palbociclib; first compound 0.03162 µM),relative viability (BI-2536 + Palbociclib; first compound 0.1 µM),relative viability (BI-2536 + Palbociclib; first compound 0.3162 µM),relative viability (BI-2536 + Palbociclib; first compound 1 µM),relative viability (BI-2536 + Pictilisib; first compound 0.01 µM),relative viability (BI-2536 + Pictilisib; first compound 0.03162 µM),relative viability (BI-2536 + Pictilisib; first compound 0.1 µM),relative viability (BI-2536 + Pictilisib; first compound 0.3162 µM),relative viability (BI-2536 + Pictilisib; first compound 1 µM),relative viability (BI-2536 + Olaparib; first compound 0.01 µM),relative viability (BI-2536 + Olaparib; first compound 0.03162 µM),relative viability (BI-2536 + Olaparib; first compound 0.1 µM),relative viability (BI-2536 + Olaparib; first compound 0.3162 µM),relative viability (BI-2536 + Olaparib; first compound 1 µM)
NCI-H1651,0.512,0.535,0.483,0.48,0.558,0.5,0.505,0.514,0.41,0.0953,0.524,0.372,0.488,0.0623,0.055,0.185,0.173,0.157,0.142,0.109
NCI-H1666,0.64,0.62,0.652,0.6,0.67,0.701,0.575,0.642,0.505,0.467,0.558,0.393,0.2,0.221,0.2,0.76,0.704,0.671,0.545,0.583
NCI-H1734,0.328,0.348,0.345,0.321,0.384,0.358,0.349,0.256,0.203,0.192,0.402,0.387,0.347,0.17,0.216,0.605,0.618,0.254,0.176,0.153
NCI-H1755,0.453,0.441,0.464,0.453,0.479,0.473,0.477,0.424,0.377,0.385,0.424,0.399,0.157,0.151,0.175,0.945,0.816,0.707,0.373,0.316
NCI-H1792,0.698,–,0.672,0.662,0.68,0.72,0.706,0.76,0.349,0.215,0.307,0.354,0.207,0.111,0.0623,0.543,0.374,0.316,0.0436,0.0344
NCI-H1793,–,0.324,0.352,0.256,0.366,0.328,0.34,0.276,0.168,0.154,0.294,0.214,0.191,0.174,0.159,0.674,0.767,0.203,0.152,0.157
NCI-H1915,0.508,0.606,0.529,0.502,0.536,0.424,0.546,0.426,0.0999,0.0968,0.866,0.899,0.264,0.074,0.0908,0.218,0.205,0.163,0.0887,0.0963
NCI-H1944,0.335,0.35,0.305,0.301,0.376,0.304,0.329,0.308,0.173,0.15,0.339,0.336,0.295,0.157,0.17,0.385,0.389,0.297,0.164,0.147
NCI-H1975,0.548,0.548,0.593,0.416,0.676,0.349,0.648,0.461,0.14,0.158,0.27,0.284,0.24,0.117,0.135,0.776,0.71,0.544,0.161,0.169
NCI-H1993,0.629,0.647,0.616,0.563,0.682,0.623,0.714,0.5,0.468,0.427,0.981,0.681,0.638,0.664,0.631,1.04,0.861,0.749,0.471,0.486
NCI-H2009,0.178,0.195,0.213,0.262,0.2,0.195,0.171,0.119,0.142,0.0906,0.779,0.358,0.179,0.137,0.103,0.665,0.54,0.45,0.114,0.126
NCI-H2023,0.365,0.385,0.343,0.341,0.439,0.382,0.348,0.168,0.102,0.0824,0.218,0.211,0.091,0.0927,0.094,0.426,0.338,0.13,0.0876,0.0937
NCI-H2085,0.475,0.445,0.464,0.489,0.491,0.489,0.446,0.409,0.287,0.301,0.395,0.504,0.371,0.183,0.224,0.786,0.697,0.544,0.341,0.381
NCI-H2087,0.236,0.255,0.242,0.22,0.254,0.225,0.189,0.203,0.0781,0.118,1,0.872,0.381,0.192,0.143,0.614,0.673,0.471,0.0859,0.102
NCI-H2126,0.338,0.348,0.331,0.347,0.345,0.324,0.368,0.352,0.276,0.232,0.509,0.48,0.27,0.247,0.253,0.968,0.891,0.77,0.322,0.241
NCI-H2170,0.395,0.358,0.435,0.285,0.415,0.379,0.437,0.363,0.155,0.16,0.342,0.295,0.192,0.184,0.168,0.597,0.525,0.39,0.164,0.145
